The source of these data is PMC7525093, “Bis-Quinolinium Cyclophane Blockers of SK Potassium Channels Are Antagonists of M3 Muscarinic Acetylcholine Receptors” (Frontiers in Pharmacology, 2020).

Structures can show the parent of a compound that is named as a salt. Where two headings read alike, the source gives them in different places. Ends that are not written are not given here.

As a reminder, the IC50 is the concentration that gives 50% inhibition. The term LD50 denotes the dose expected to kill half of the subjects tested.

Data set [1] addresses T1, human M3 muscarinic acetylcholine receptor (Homo sapiens, UniProt P20309).
T1 construct: host or cells: CHO-K1 cells, stably transfected
Nature of the data set: R-CEPIAer ER calcium assay of Gq-coupled receptor activation, M3-transfected CHO-K1 cells. It counts as cell-based. The conditions noted are these: for Hill slope of inhibition curve, M3 receptor: Hill equation fit. How it is done: The binding of antagonists to Gq-coupled receptors was determined by measuring IP3-mediated calcium depletion from the endoplasmic reticulum (ER). This was accomplished using CHO-K1 cells stably transfected with human M3 muscarinic acetylcholine receptor (CEM3000000, cDNA Resource Center, Bloomsburg University) and R-CEPIAer, a low affinity ER-targeted calcium indicator fluorescent protein ([Suzuki et al., 2014]). R-CEPIAer reporting of ER calcium concentration was assessed using 564 nm excitation light (>590 long-pass emission) at 20 second intervals on a Nikon swept-field confocal microscope using slit-scan mode, 2x2 Binning, and 100 millisecond frames. F/Fmax was fluorescence intensity normalized to maximal fluorescence intensity during the experiment. The response of cells to Gq-coupled receptor agonist were measured as the change in F/Fmax (ΔF/Fmax) from preagonist value to fluorescence minimum during agonist application (that occurs by IP3-mediated ER calcium depletion). […] Perfusion of each agonist application was for 2 min, while the antagonist overlapped and preceded the second agonist application by 3 min. […] IC50 was calculated by assaying fractional inhibition using a dose-response of antagonist concentrations (i.e. Figure 1D ). For assays of other receptors such as the M1 and M5 muscarinic receptors, H1 histamine and P2Y1 purinergic receptors, these receptors were transiently co-transfected with the pCMV R-CEPIAer plasmid (a gift from Masamitsu Iino (Addgene plasmid # 58216; http://n2t.net/addgene:58216; RRID : Addgene_58216)) into CHO cells using polyethylenimine [according to previous methods ([Longo et al., 2013])]. IC50 and EC50 values were estimated by fitting the dose-response relationship to a Hill equation.
To obtain a pKB using a Schild analysis ([Arunlakshana and Schild, 1959]), the acetylcholine EC50 was measured in the absence of UCL1684 and EC50′ measured in the presence of increasing concentrations of UCL1684. These values were used to calculate a dose ratio (DR = EC50′/EC50) for each UCL1684 concentration. The log(DR − 1) was plotted vs. log UCL1684 concentrations and fit to a linear equation where the theoretical X-intercept was used to estimate a pKB.

Another data set concerns mouse trachea. Nature of the data set: Isometric tracheal tension measurement (organ bath). To be noted: for IC50: cumulative concentrations, Hill function, read-out: IC50, relaxation of carbachol-precontracted trachea; for Relaxation response of trachea: TrpM channel blocker. The method, then: Mice used in these studies were BALB/C mice from Jackson Labs. All animal procedures were reviewed and approved by the University of Texas Health Science Center at San Antonio Institutional Animal Care and Use Committee. For tracheal constriction studies, animals were deeply anesthetized with isoflurane and then sacrificed by cervical dislocation. Isometric tracheal contraction measurements were performed as previously described ([Semenov et al., 2012]). Trachea were removed and surrounding tissues dissected in ice-cold physiologic saline solution (PSS) consisting of 119 mM NaCl, 4.7 mM KCl, 2.0 mM CaCl2, 1.0 mM KH2PO4, 1.17 mM MgSO4, 18 mM NaHCO3, 0.026 mM EDTA, 11 mM glucose, and 12.5 mM sucrose. Trachea were cut below the pharynx and above the primary bronchus bifurcation. Two metal wires, attached to a force transducer and micrometer (Radnoti, LLC), were threaded into the lumen of the trachea. Trachea were placed into an oxygenated organ bath (95% O2, 5% CO2), at 37°C, pH 7.35 (after bubbling with 95% O2–5% CO2). Tracheal resting tension was readjusted to 1 gram over 1 h and then challenged with 67 mM potassium PSS with NaCl adjusted to 56.7 mM to maintain proper osmolarity (KPS). Trachea were challenged two or more times until reproducible contractile responses were achieved. All subsequent experimental drug responses were normalized to the KPS response. Bladder measurements were conducted in a similar manner as trachea with identical solutions. The bladder was excised and formed into a ring by cutting anterior and posterior portions before mounting on metal wires for force measurements. For the aorta preparation, the ascending thoracic aorta was excised and cut into 2–3 mm sections before mounting on wires for force measurements.

In the next data set the test system is SK potassium channels. The conditions noted are these: cited from earlier work.
The next data set relates to CNG2. On the set-up: method as in Rosenbaum et al., 2004. The conditions noted are these: ref Rosenbaum et al., 2004; read-out: IC50, block of CNG2 channels; cited from earlier work.
For the next data set, the system named is CNG1. Also on record: method as in Rosenbaum et al., 2004. To be noted: ref Rosenbaum et al., 2004; read-out: IC50, block of CNG1 channels; cited from earlier work.
A further data set concerns mouse. Also on record: method as in Gamboa-Vujicic et al., 1993. To be noted: ref Gamboa-Vujicic et al., 1993, cited from earlier work.
[2] abbreviates: 5 μM antagonist, 0.5 μM carbachol, 0 = none, 1 = complete inhibition.

T1 sequence (P20309 whole entry): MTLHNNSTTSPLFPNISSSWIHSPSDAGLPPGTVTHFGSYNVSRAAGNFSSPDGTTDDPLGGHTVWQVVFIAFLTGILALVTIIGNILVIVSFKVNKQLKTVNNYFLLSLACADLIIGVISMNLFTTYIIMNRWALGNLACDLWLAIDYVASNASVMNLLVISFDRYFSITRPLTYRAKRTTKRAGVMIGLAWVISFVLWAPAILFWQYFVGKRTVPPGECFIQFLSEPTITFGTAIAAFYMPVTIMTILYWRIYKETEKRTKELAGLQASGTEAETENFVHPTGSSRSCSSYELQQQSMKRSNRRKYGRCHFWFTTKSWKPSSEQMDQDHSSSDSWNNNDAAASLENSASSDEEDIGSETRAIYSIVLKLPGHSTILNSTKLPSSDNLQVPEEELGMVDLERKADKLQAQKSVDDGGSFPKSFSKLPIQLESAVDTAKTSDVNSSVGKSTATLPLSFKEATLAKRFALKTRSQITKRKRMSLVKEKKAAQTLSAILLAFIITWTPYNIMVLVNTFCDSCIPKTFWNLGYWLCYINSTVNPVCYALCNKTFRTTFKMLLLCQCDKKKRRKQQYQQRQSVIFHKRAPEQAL

With `Cl.c1ccc2c(c1)CCC[C@H]2Nc1nc2ccccc2[nH]1` [NS8593, N-[(1R)-1,2,3,4-Tetrahydro-1-naphthalenyl]-1H-benzimidazol-2-amine hydrochloride], the IC50 in data set [1] is 83000 nM; with mouse trachea (0.5 μM carbachol) it was 31500 ± 2000 nM; with mouse trachea (Mus musculus, 0.5 μM carbachol) it was 31000 nM. Moreover, in data set [1] (0.5 μM carbachol), the “Hill slope of inhibition curve, M3 receptor” value (“Hill slope of inhibition curve” for short) came out at 1.7 ± 0.35. In addition, the “Effect on M3 carbachol response” value in data set [1] (10 μM antagonist, 0.5 μM carbachol) was “undetectable”. The “Fractional inhibition of second carbachol response” value (“Fractional inhibition” for short) in data set [1] (100 μM antagonist, 0.5 μM carbachol) is listed as 0.60 ± 0.03. Besides, the “Relaxation of precontracted trachea” value with mouse trachea (76.8 μM (highest concentration), 0.5 μM carbachol) is on record as “complete relaxation”.

Take `c1ccc2c(c1)c1cc[n+]2CCCCC[n+]2ccc(c3ccccc32)NCCCCCN1` [UCL 1848, 8,14-Diaza-1,7(1,4)-diquinolinacyclotetradecaphane trifluoroacetate salt]: the concentration for half-maximal inhibition (IC50) in the data set with SK potassium channels (effects on SK-dependent fast-afterhyperpolarizing currents, ref Campos Rosa et al., 1996, Chen et al., 2000, Blank et al., 2004, read-out: IC50, SK potassium channels) is 2 nM; with SK potassium channels (ref Chen et al., 2000, read-out: IC50, block of SK channels), 2.7 nM; in data set [1], 1000 nM. Further, the “Hill slope of inhibition curve” value in data set [1] (0.5 μM carbachol) worked out at 1.47 ± 0.46. Also, the “Fractional inhibition” value in data set [1] (setting [2]) is 0.98 ± 0.01.

On to `CCCCCCCCCCCCC/C=C/[C@@H](O)[C@@H](N)CO` [d-erthyro-sphingosine], for which, in the data set with mouse trachea (8.1 μM), the “Relaxation response of trachea” value is 14.9 ± 6.0.

`Cc1cc(=N)c2ccccc2n1CCCCCCCCCCn1c(C)cc(=N)c2ccccc21.Cl.Cl` [dequalinium chloride, 1-[10-(4-imino-2-methyl-1,4-dihydroquinolin-1-yl)decyl]-2-methyl-1,4-dihydroquinolin-4-imine dihydrochloride]: the IC50 in the data set on SK potassium channels (ref Castle et al., 1993, Dunn, 1994, read-out: IC50, block of SK potassium channels) was 1500 nM; in data set [1], 270 nM; in the data set on CNG2, 2400 nM; in the data set with CNG1, 190 nM. The “Hill slope of inhibition curve” value in data set [1] (0.5 μM carbachol) is listed as 0.90 ± 0.29. Besides, the “Fractional inhibition” value in data set [1] (setting [2]) is reported as 0.99 ± 0.003.

For the molecule `Cc1cc(N)c2ccccc2[n+]1CCCCCCCCCC[n+]1c(C)cc(N)c2ccccc21.[Cl-].[Cl-]` [dequalinium chloride, 1-[10-(4-imino-2-methyl-1,4-dihydroquinolin-1-yl)decyl]-2-methyl-1,4-dihydroquinolin-4-imine dihydrochloride], the LD50 in the data set on mouse (intraperitoneal administration) is 18.3 mg/kg; with mouse (oral administration), 300 mg/kg.

In the case of `CC(Cc1ccc(O)c(O)c1)C(C)Cc1ccc(O)c(O)c1` (stereo not drawn) [nordihydroguaiaretic acid], the “Relaxation response of trachea” value with mouse trachea (25 μM) stood at 12.4 ± 8.5.

In the case of “Apamin: peptide blocker of SK channels (CNCKAPETALCARRCQQH; not fully specified (C-terminus, bridges); cysteine pairing not given here; UniProt P01500 28-45, looked up)”, in the data set on mouse trachea (100 nM, 0.5 μM carbachol), the “Relaxation of ASM contractions” value is “did not relax ASM contractions” and the “Relaxation response of trachea, single dose” value is recorded as −15 ± 7.
